Test results taken from US20040054130A1, “Insulin potentiating peptides” (priority 2000, published 2004).
Square brackets hold non-standard residues; d marks the D form. Ends that are not written are not given here.

Legend:
[1] = test system: Zucker (fa/fa) rat hemidiaphragm muscle; assay: In vitro glycogen synthesis (glucose incorporation into glycogen) in hemidiaphragm muscle with exogenous insulin; type: cell-based
Procedure: In vitro insulin-potentiating effects of the synthetic peptide analogues were assessed by measuring the rates of exogenous glucose incorporation into glycogen in rat hemidiaphragms (Lim et al, 1992). Hemidiaphragms from overnight-fasted Zucker fatty(fa/fa) female rats were dissected, and divided into segments of approximate 35-50 mg each. Tissues from the same rat were used for all groups. The tissue was incubated in 2 ml of Krebs-Ringer bicarbonate (KRB) buffer (pH 7.4) containing [^14C]glucose (5.5 mM, final specific activity 0.05 mCi/mmol) under an atmosphere of 95% 02-5% CO2 at 37° C. for 1.5 hr. After incubation, tissues were removed, washed with cold buffer and blotted. Tissues were digested, the muscle glycogen was precipitated and the ^14C-radioactivity was counted in a Wallac 1410 liquid scintillation counter. The biological activity of peptide analogues was measured as the rate of mmol glucose incorporation into muscle glycogen/g tissue/hr.
The sensitivity of hemidiaphragm muscle tissue to insulin (0.1-100 mU/ml) on glycogen synthesis was first analyzed. The dose response curves for peptide analogues on the insulin-potentiating effect to glycogen synthesis were then measured using cumulative increasing concentrations (10^−3 10 μmol/ml) of peptides in the presence of insulin (1 mU/ml). The biological activity of each peptide analogue was measured as the rate of glucose incorporation into muscle glycogen (μmol/g tissue/hr), and represented by the mean±SEM from eight determinations.
To determine the insulin-potentiating effect of the peptide analogues, the rates of incorporation of glucose into muscle glycogen were measured. The rates of glycogen synthesis (μmol/g tissue/hr) were 0.52±0.05, 0.60±0.04, 1.27±0.06 and 1.52±0.07 inresponse to 0.33, 1, 3.33 and 10 mU/ml insulin respectively, as shown in FIG. 1.
The insulin-potentiating effect of the peptide analogues was then observed by studying their dose response. curves for glucose incorporation into glycogen in the presence of 1 mU/ml exogenous insulin. The effects of peptides 1, 3, 4, 6, 7, 8 and 10 were evident at doses higher than 0.01 μmol/ml, and continued to increase with increasing peptide concentration to 1 μmol/ml, as shown in FIGS. 2A and 2B.
The activity of each analogue was assessed by in vitro measurement of glycogen synthesis in muscle, as described above.

C57BL/6J ob/ob mice [2] = assay: Plasma insulin radioimmunoassay after chronic administration; type: in vivo, mouse; conditions: after 14 days treatment
Procedure: (§1) Mice selected for this experiment were initially fasted for 4 hours, then anaesthetized with a single injection of sodium pentobarbitone (35 mg/kg). A blood sample was collected from each mouse by eye-bleed for the assessment of plasma glucose and insulin levels (day 0). Collected blood samples were stored at −20° C. until analysis was performed. A single Alzet mini-pump (#1002, Alzet, USA) containing either sterile saline (100 μl; n=14) or peptide 3 (20 μmol/kg dissolved in 100 μl saline; n=14) was inserted under the skin between the scapula of the mice. The incision was clamped and disinfected using iodine. The pumps were left for 14 days, and 5 body-weight, and food measurements were recorded during this period, at days 0, 4, 7, 10 and 14. Blood samples were collected on day 0 and 14 days post-saline (n=5) or peptide 3 (n=4) administration for plasma glucose analysis. The results reported below are expresses as mean +/− standard error. (a) Plasma insulin Plasma insulin levels were quantitatively determined in ob/ob mice, using an insulin radioimmunoassay kit (Linco Research Inc. USA) according to the manufacturer's instructions.

adipose tissue = assay: Ex vivo glucose transport assay in adipose tissue of chronically treated mice; type: cell-based, mouse; conditions: after 14 days treatment
Procedure: (c) Glucose transport assay Glucose transport in adipose tissue extracted from saline-treated and chronically peptide 3-treated mice was analyzed by an ex vivo glucose uptake assay. Adipose tissues was harvested from mice which had received saline (n=5) or peptide 3 (n=4) in the IPGTT, and used for a glucose transport assay. Mice were sacrificed by a lethal injection of pentabarbitone to the heart. Epididymal fat from male mice or peritoneal fat from female mice was used. Adipose tissues were rinsed in saline and then sliced into even pieces for weight determination. Tissues were placed in flasks and incubated in 2 ml KRB buffer (pH 7.4) containing D-glucose (10 mM final concentration) with vigorous agitation at 37° C. for 2 h under an atmosphere of carbogen. All samples were then placed on ice to reduce glycolysis. Tissues were removed from flasks, and the remaining solutions were analyzed for glucose concentrations using a glucose analyzer. Glucose uptake by each tissue sample was calculated, and compared to tissue free buffer controls.

C57BL/6J ob/ob mice [3] = assay: Intraperitoneal glucose tolerance test (IPGTT) after chronic administration; type: in vivo, mouse
Procedure: An intraperitoneal glucose tolerance test was conducted to determine whether the clearance of a glucose load was enhanced. […], five receiving saline and five receiving peptide 3. At 14 days after chronic administration of saline or peptide 3, mice were fasted for 4 hours, then anaesthetized and eye-bled for day 14 plasma metabolite analysis. Half of each saline or peptide 3 treatment group was given a single intraperitoneal injection of glucose (1 g/kg dissolved in saline), and the other half saline (equivalent dose). Mice were eye-bled at 30, 60 and 120 minutes after glucose administration, and blood glucose levels were determined.

C57BL/6J ob/ob mice [4] = assay: Chronic administration (14 day mini-pump): body weight, food intake, plasma glucose; type: in vivo, mouse
Procedure: as §1, with “The effects of chronic administration of peptide 3 in the C57Bl/6J ob/ob diabetic model were evaluated by measurements of a number of parameters, including body weight, food intake, plasma glucose levels, plasma insulin levels, intraperitoneal glucose tolerance test and glucose uptake by adipose tissue (ex vivo). Male and female C57BL/6J ob/ob mice aged 12-15 weeks old were used. Fasting blood glucose levels were determined for all mice 14 days prior to experimentation. Only mice with fasting blood glucose levels >7.0 mmol/l were used in the study. Mice” for “Mice”, “error.” for “error. (a) Plasma insulin Plasma insulin levels were quantitatively determined in ob/ob mice, using an insulin radioimmunoassay kit (Linco Research Inc. USA) according to the manufacturer's instructions.”

[5] = 20 μmol/kg by mini-pump, 14 days

**Q.** What does the source list for “Arg-D-Ala-Phe-Phe-NH2 (R[dA]FF-NH2; N-terminus assumed; SMILES C[C@@H](NC(=O)[C@@H](N)CCCNC(=N)N)C(=O)N[C@@H](Cc1ccccc1)C(=O)N[C@@H](Cc1ccccc1)C(N)=O) [Peptide 3]”?
**A.** maximum stimulation of the rate of glycogen synthesis ([1]; 10 μmol/ml peptide, 1 mU/ml insulin): up to 1.44±0.04 mol/g tissue/hr; in vitro glycogen synthesis ([1]; 0.01-1 μmol/ml peptide (p<0.05), FIG. 2A): significantly increased; Activity ([1]; Table 6 (corrected), summary of Table 5): active; plasma insulin level (C57BL/6J ob/ob mice [2]): 17.10 ± 5.99 ng/mL; more glucose transported than adipose tissue from saline-treated mice (adipose tissue): 38%; glucose transport by adipose tissue (adipose tissue; 10 mM D-glucose, 2 h, 37° C.): 1.67±0.18 nmol/mg tissue/h; increase in plasma glucose after glucose bolus (C57BL/6J ob/ob mice [3]; 30 min after 1 g/kg glucose i.p.): 115%; reduction of blood glucose compared to saline-treated mice (C57BL/6J ob/ob mice [3]; 120 min after glucose injection): 47%; lower basal blood glucose level compared to saline-treated mice (C57BL/6J ob/ob mice [3]; prior to glucose injection, day 14): 46.1%; body weight gain vs saline-infused mice (C57BL/6J ob/ob mice [4]; [5]): no significant difference; food intake vs saline-infused mice (C57BL/6J ob/ob mice [4]; [5]): no significant difference; plasma glucose levels vs saline-infused control mice (C57BL/6J ob/ob mice [4]; continuous infusion 14 days (P<0.025)): significantly decreased; reduction in plasma glucose levels (C57BL/6J ob/ob mice [4]; day 0 to day 14, 4 h fasted): 11.60 ± 3.63 mmol/L
